Data set [1] relates to bovine nucleus pulposus cells. Briefly: MTS cytotoxicity assay, bovine nucleus pulposus cells. The format is cell-based. Particulars: bovine disc cells, 24 hours incubation. As for the experimental part:
(§1) Cytotoxicity testing was carried out on precursor monomers and proteoglycan analogues via the MTS assay using a commercial Kit (MTS assay Cell titre 96® AQueous One Solution Cell Proliferation Assay). Briefly, 5×10^3 cells per well were allowed to adhere to a 96 well plate for 24 hours. The substance under test was added and incubated with the cells for 24 hours before assessment of cell activity with MTS solution. Two cell types were used: (i) L929 mouse fibroblasts (European Collection of Cell Culture: ECACC No 85011425) which are typically used in cytotoxicity tests and (ii) bovine nucleus pulposus cells, prepared by enzymatic digestion of nucleus pulposus from bovine coccygeal discs.
(§2) The individual possible components of proteoglycan analogues were tested, including: NaAMPS, KSPA, acryloyl morpholine (ACMO), glycerol, ascorbic acid, Oxone (potassium oxypersulphate), PEG diacrylate and multifunctional macromer cross-linkers. The proteoglycan analogues are exemplified by those in Tables 1 and 2.
(In general: Tetrazolium assays rely on reduction of a dye to a coloured formazan, in cell work by metabolically active cells.)

A further data set relates to L929 mouse fibroblasts. In words: MTS cytotoxicity assay, L929 cells. The format is cell-based. Particulars: 24 hours incubation. As for the experimental part:
as §1, §2

`O=C1O[C@H]([C@@H](O)CO)C(O)=C1O` [ascorbic acid]: the “toxicity to cells (MTS assay)” value (in data set [1]; in the data set with L929 mouse fibroblasts) was “not to be toxic” in each case.

For the compound potassium oxypersulphate [Oxone], the “toxicity to cells (MTS assay)” value (in data set [1]; with L929 mouse fibroblasts) was “not to be toxic” each time.
